{"source": "ChEMBL document CHEMBL3244053", "about": "“Structural modification study of bis(substituted aminoalkylamino)anthraquinones. An evaluation of the relationship of the [2-[(2-hydroxyethyl)amino]ethyl]amino side chain with antineoplastic activity” (1979)", "key": {"B16 [1]": {"test_system": "B16", "assay": "Antineoplastic activity against mouse B16 cells allografted in BDF1 mouse assessed as survival at 7.5 mg/kg qd for 9 days", "format": "functional, organism-based", "design": "dose 7.5 mg/kg"}, "B16 [2]": {"test_system": "B16", "assay": "Antineoplastic activity against mouse B16 cells allografted in BDF1 mouse at 15 mg/kg qd for 9 days relative to control", "format": "functional"}, "B16 [3]": {"test_system": "B16", "assay": "Antineoplastic activity against mouse B16 cells allografted in BDF1 mouse assessed as survival at 1.88 mg/kg qd for 9 days", "format": "functional, organism-based", "design": "dose 1.88 mg/kg"}, "B16 [4]": {"test_system": "B16", "assay": "Antineoplastic activity against mouse B16 cells allografted in BDF1 mouse at 3.75 mg/kg qd for 9 days relative to control", "format": "functional"}, "L1210 [5]": {"test_system": "L1210", "assay": "Antineoplastic activity against mouse L1210 cells allografted in CDF1 mouse assessed as survival at 15 mg/kg qd for 9 days", "format": "functional, organism-based", "design": "dose 15 mg/kg"}, "Colon 26 [6]": {"test_system": "Colon 26", "assay": "Antineoplastic activity against mouse Colon 26 cells allografted in CDF1 mouse at 1.88 mg/kg qd for 9 days relative to control", "format": "functional"}, "L1210 [7]": {"test_system": "L1210", "assay": "Antineoplastic activity against mouse L1210 cells allografted in CDF1 mouse assessed as survival at 3.75 mg/kg qd for 9 days", "format": "functional, organism-based", "design": "dose 3.75 mg/kg"}, "P388 [8]": {"test_system": "P388", "assay": "Antineoplastic activity against mouse P388 cells allografted in CDF1 mouse at 2.5 mg/kg qd for 9 days relative to control", "format": "functional"}, "Colon 26 [9]": {"test_system": "Colon 26", "assay": "Antineoplastic activity against mouse Colon 26 cells allografted in CDF1 mouse at 15 mg/kg qd for 9 days relative to control", "format": "functional"}, "P388 [10]": {"test_system": "P388", "assay": "Antineoplastic activity against mouse P388 cells allografted in CDF1 mouse at 5 mg/kg qd for 9 days relative to control", "format": "functional"}, "Colon 26 [11]": {"test_system": "Colon 26", "assay": "Antineoplastic activity against mouse Colon 26 cells allografted in CDF1 mouse at 3.75 mg/kg qd for 9 days relative to control", "format": "functional"}, "P388 [12]": {"test_system": "P388", "assay": "Antineoplastic activity against mouse P388 cells allografted in CDF1 mouse at 10 mg/kg qd for 9 days relative to control", "format": "functional"}, "L1210 [13]": {"test_system": "L1210", "assay": "Antineoplastic activity against mouse L1210 cells allografted in CDF1 mouse at 1.88 mg/kg qd for 9 days relative to control", "format": "functional"}, "Colon 26 [14]": {"test_system": "Colon 26", "assay": "Antineoplastic activity against mouse Colon 26 cells allografted in CDF1 mouse assessed as survival at 1.88 mg/kg qd for 9 days", "format": "functional, organism-based", "design": "dose 1.88 mg/kg"}, "P388 [15]": {"test_system": "P388", "assay": "Antineoplastic activity against mouse P388 cells allografted in CDF1 mouse assessed as survival at 2.5 mg/kg qd for 9 days", "format": "functional, organism-based", "design": "dose 2.5 mg/kg"}, "Colon 26 [16]": {"test_system": "Colon 26", "assay": "Antineoplastic activity against mouse Colon 26 cells allografted in CDF1 mouse assessed as survival at 7.5 mg/kg qd for 9 days", "format": "functional, organism-based", "design": "dose 7.5 mg/kg"}, "P388 [17]": {"test_system": "P388", "assay": "Antineoplastic activity against mouse P388 cells allografted in CDF1 mouse assessed as survival at 10 mg/kg qd for 9 days", "format": "functional, organism-based", "design": "dose 10 mg/kg"}, "B16 [18]": {"test_system": "B16", "assay": "Antineoplastic activity against mouse B16 cells allografted in BDF1 mouse at 1.88 mg/kg qd for 9 days relative to control", "format": "functional"}, "B16 [19]": {"test_system": "B16", "assay": "Antineoplastic activity against mouse B16 cells allografted in BDF1 mouse at 7.5 mg/kg qd for 9 days relative to control", "format": "functional"}, "B16 [20]": {"test_system": "B16", "assay": "Antineoplastic activity against mouse B16 cells allografted in BDF1 mouse at 30 mg/kg qd for 9 days relative to control", "format": "functional"}, "B16 [21]": {"test_system": "B16", "assay": "Antineoplastic activity against mouse B16 cells allografted in BDF1 mouse assessed as survival at 3.75 mg/kg qd for 9 days", "format": "functional, organism-based", "design": "dose 3.75 mg/kg"}, "L1210 [22]": {"test_system": "L1210", "assay": "Antineoplastic activity against mouse L1210 cells allografted in CDF1 mouse at 15 mg/kg qd for 9 days relative to control", "format": "functional"}, "L1210 [23]": {"test_system": "L1210", "assay": "Antineoplastic activity against mouse L1210 cells allografted in CDF1 mouse assessed as survival at 7.5 mg/kg qd for 9 days", "format": "functional, organism-based", "design": "dose 7.5 mg/kg"}, "Colon 26 [24]": {"test_system": "Colon 26", "assay": "Antineoplastic activity against mouse Colon 26 cells allografted in CDF1 mouse assessed as survival at 15 mg/kg qd for 9 days", "format": "functional, organism-based", "design": "dose 15 mg/kg"}, "B16 [25]": {"test_system": "B16", "assay": "Antineoplastic activity against mouse B16 cells allografted in BDF1 mouse assessed as survival at 15 mg/kg qd for 9 days", "format": "functional, organism-based", "design": "dose 15 mg/kg"}, "P388 [26]": {"test_system": "P388", "assay": "Antineoplastic activity against mouse P388 cells allografted in CDF1 mouse assessed as survival at 20 mg/kg qd for 9 days", "format": "functional, organism-based", "design": "dose 20 mg/kg"}, "P388 [27]": {"test_system": "P388", "assay": "Antineoplastic activity against mouse P388 cells allografted in CDF1 mouse at 20 mg/kg qd for 9 days relative to control", "format": "functional"}, "B16 [28]": {"test_system": "B16", "assay": "Antineoplastic activity against mouse B16 cells allografted in BDF1 mouse assessed as survival at 30 mg/kg qd for 9 days", "format": "functional, organism-based", "design": "dose 30 mg/kg"}, "L1210 [29]": {"test_system": "L1210", "assay": "Antineoplastic activity against mouse L1210 cells allografted in CDF1 mouse at 7.5 mg/kg qd for 9 days relative to control", "format": "functional"}, "L1210 [30]": {"test_system": "L1210", "assay": "Antineoplastic activity against mouse L1210 cells allografted in CDF1 mouse at 3.75 mg/kg qd for 9 days relative to control", "format": "functional"}, "Colon 26 [31]": {"test_system": "Colon 26", "assay": "Antineoplastic activity against mouse Colon 26 cells allografted in CDF1 mouse at 7.5 mg/kg qd for 9 days relative to control", "format": "functional"}, "L1210 [32]": {"test_system": "L1210", "assay": "Antineoplastic activity against mouse L1210 cells allografted in CDF1 mouse assessed as survival at 1.88 mg/kg qd for 9 days", "format": "functional, organism-based", "design": "dose 1.88 mg/kg"}, "Colon 26 [33]": {"test_system": "Colon 26", "assay": "Antineoplastic activity against mouse Colon 26 cells allografted in CDF1 mouse assessed as survival at 3.75 mg/kg qd for 9 days", "format": "functional, organism-based", "design": "dose 3.75 mg/kg"}, "P388 [34]": {"test_system": "P388", "assay": "Antineoplastic activity against mouse P388 cells allografted in CDF1 mouse assessed as survival at 5 mg/kg qd for 9 days", "format": "functional, organism-based", "design": "dose 5 mg/kg"}}, "note": "Calls of active or inactive are those of the source. The rule behind the calls is not given here.", "data": [{"smiles": "O=C1c2ccccc2C(=O)c2c(NCCNCCO)ccc(O)c21", "values": [{"measurement": "Activity", "setting": "B16 [1]", "result": "Active"}, {"measurement": "T/C", "setting": "B16 [2]", "result": 271, "unit": "%"}, {"measurement": "Activity", "setting": "B16 [3]", "result": "Active"}, {"measurement": "T/C", "setting": "B16 [4]", "result": 201, "unit": "%"}, {"measurement": "Activity", "setting": "L1210 [5]", "result": "Active"}, {"measurement": "T/C", "setting": "Colon 26 [6]", "result": 162, "unit": "%"}, {"measurement": "Activity", "setting": "L1210 [7]", "result": "Active"}, {"measurement": "T/C", "setting": "P388 [8]", "result": 216, "unit": "%"}, {"measurement": "T/C", "setting": "Colon 26 [9]", "result": 182, "unit": "%"}, {"measurement": "T/C", "setting": "P388 [10]", "result": 226, "unit": "%"}, {"measurement": "T/C", "setting": "Colon 26 [11]", "result": 177, "unit": "%"}, {"measurement": "T/C", "setting": "P388 [12]", "result": 342, "unit": "%"}, {"measurement": "T/C", "setting": "L1210 [13]", "result": 136, "unit": "%"}, {"measurement": "Activity", "setting": "Colon 26 [14]", "result": "Active"}, {"measurement": "Activity", "setting": "P388 [15]", "result": "Active"}, {"measurement": "Activity", "setting": "Colon 26 [16]", "result": "Active"}, {"measurement": "Activity", "setting": "P388 [17]", "result": "Active"}, {"measurement": "T/C", "setting": "B16 [18]", "result": 157, "unit": "%"}, {"measurement": "T/C", "setting": "B16 [19]", "result": 254, "unit": "%"}, {"measurement": "T/C", "setting": "B16 [20]", "result": 326, "unit": "%"}, {"measurement": "Activity", "setting": "B16 [21]", "result": "Active"}, {"measurement": "T/C", "setting": "L1210 [22]", "result": 151, "unit": "%"}, {"measurement": "Activity", "setting": "L1210 [23]", "result": "Active"}, {"measurement": "Activity", "setting": "Colon 26 [24]", "result": "Active"}, {"measurement": "Activity", "setting": "B16 [25]", "result": "Active"}, {"measurement": "Activity", "setting": "P388 [26]", "result": "Active"}, {"measurement": "T/C", "setting": "P388 [27]", "result": 178, "unit": "%"}, {"measurement": "Activity", "setting": "B16 [28]", "result": "Active"}, {"measurement": "T/C", "setting": "L1210 [29]", "result": 193, "unit": "%"}, {"measurement": "T/C", "setting": "L1210 [30]", "result": 147, "unit": "%"}, {"measurement": "T/C", "setting": "Colon 26 [31]", "result": 196, "unit": "%"}, {"measurement": "Activity", "setting": "L1210 [32]", "result": "Active"}, {"measurement": "Activity", "setting": "Colon 26 [33]", "result": "Active"}, {"measurement": "Activity", "setting": "P388 [34]", "result": "Active"}]}]}
